Test results as given in ChEMBL document CHEMBL1649305, “Novel protease inhibitors (PIs) containing macrocyclic components and 3(R),3a(S),6a(R)-bis-tetrahydrofuranylurethane that are potent against multi-PI-resistant HIV-1 variants in vitro” (Antimicrob Agents Chemother, 2010).
Active and inactive are the calls of the source. The rule behind the calls is not given here.

Assays:
[1] = tested on: Human immunodeficiency virus 1; assay: Antiviral activity against HIV1 LAI infected in human MT2 cells by MTT assay; assay type: functional, organism-based; settings: Human immunodeficiency virus 1, LAI
[2] = tested on: Human immunodeficiency virus 2; assay: Antiviral activity against HIV2 EHO infected in human MT2 cells by MTT assay; assay type: functional, organism-based; settings: Human immunodeficiency virus 2, EHO
[3] = tested on: Human immunodeficiency virus 2; assay: Antiviral activity against HIV2 ROD infected in human MT2 cells by MTT assay; assay type: functional, organism-based; settings: Human immunodeficiency virus 2, ISOLATE ROD
[4] = Cytotoxicity against human MT2 cells after 7 days by MTT assay; assay type: cell-based
[5] = tested on: Human immunodeficiency virus 1; assay: Antiviral activity against HIV1 expressing protease L10F/D30N/K45I/A71V/T74S mutant infected in human MT4 cells selected at 5 uM of nelfinavir by MTT assay; assay type: functional, organism-based; settings: Human immunodeficiency virus 1, MT4
[6] = tested on: Human immunodeficiency virus 1; assay: Antiviral activity against HIV1 NL4-3 infected in human MT4 cells at 0.26 uM after 50 passages by MTT assay; assay type: functional, organism-based
[7] = tested on: Human immunodeficiency virus 1; assay: Antiviral activity against HIV1 expressing protease L10I/L24I/M46I/V82I/I84V mutant infected in human MT4 cells selected after 50 passages of GRL-216 by MTT assay; assay type: functional, organism-based; settings: Human immunodeficiency virus 1, MT4
[8] = tested on: Human immunodeficiency virus 1; assay: Antiviral activity against HIV1 expressing protease L10F/M46I/T91S mutant infected in human MT4 cells selected at 1 uM of GRL-246 by MTT assay; assay type: functional, organism-based; settings: Human immunodeficiency virus 1, MT4
[9] = tested on: Human immunodeficiency virus 1; assay: Antiviral activity against HIV1 expressing protease L10F/M46L/I50V/A71Vmutant infected in human MT4 cells selected at 1 uM of GRL-286 by MTT assay; assay type: functional, organism-based; settings: Human immunodeficiency virus 1, MT4
[10] = tested on: Human immunodeficiency virus 1; assay: Antiviral activity against HIV1 expressing protease L10F/M46M,I/Q61Q mutant infected in human MT4 cells selected at 1 uM of GRL-396 by MTT assay; assay type: functional, organism-based; settings: Human immunodeficiency virus 1, MT4
[11] = tested on: Human immunodeficiency virus type 1 protease (Human immunodeficiency virus 1), Q72874 [L24I,V82I,I84V]; assay: Inhibition of protease L24I/V82I/I84V[…] dimerization in HIV1 infected in COS7 cells at 0.1 uM by FRET based assay; assay type: cell-based; settings: COS-7
[12] = target: Protease (Human immunodeficiency virus 1) (UniProt Q9YQ12); assay: Inhibition of protease dimerization in HIV1 infected in COS7 cells at 0.1 uM by FRET based assay; assay type: cell-based; settings: COS-7
[13] = tested on: Human immunodeficiency virus 1; assay: Antiviral activity against wild type HIV1 NL4-3 infected in human MT4 cells by p24 Gag protein production inhibition assay; settings: Human immunodeficiency virus 1, NL4-3, MT4
[14] = tested on: Human immunodeficiency virus 1; assay: Antiviral activity against wild type HIV1 ERS104 containing protease L63P mutant infected in human PHA-PBMC cells by p24 Gag protein production inhibition assay; settings: Human immunodeficiency virus 1, ERS104, PBMC
[15] = tested on: Human immunodeficiency virus 1; assay: Antiviral activity against HIV1 expressing protease L10F/M46I/I54V/V82A mutant infected in human MT4 cells selected at 5 uM of Lopinavir by p24 Gag protein production inhibition assay; settings: Human immunodeficiency virus 1, MT4
[16] = tested on: Human immunodeficiency virus 1; assay: Antiviral activity against HIV1 expressing protease L10I/G48V/I54V/A71V/I84V/L90M mutant infected in human MT4 cells selected at 5 uM of saquinavir by p24 Gag protein production inhibition assay; settings: Human immunodeficiency virus 1, MT4
[17] = tested on: Human immunodeficiency virus 1; assay: Antiviral activity against HIV1 expressing protease L10F/M46I/I50V/A71V/I84V/L90M mutant infected in human MT4 cells selected at 5 uM of amprenavir by p24 Gag protein production inhibition assay; settings: Human immunodeficiency virus 1, MT4
[18] = tested on: Human immunodeficiency virus 1; assay: Antiviral activity against HIV1 expressing protease L23I/E34Q/K43I/M46I/I50L/G51A/L63P/A71V/V82A/T91A mutant infected in human MT4 cells selected at 5 uM of atazanavir by p24 Gag protein production inhibition assay; settings: Human immunodeficiency virus 1, MT4
[19] = tested on: Human immunodeficiency virus 1; assay: Antiviral activity against multidrug-resistant HIV1 isolate MM containing L10I, K43T, M46L, I54V, L63P, A71V, V82A, L90M, and Q92K mutant infected in human PHA-PBMC cells by p24 Gag protein production inhibition assay; settings: Human immunodeficiency virus 1, isolate MM
[20] = tested on: Human immunodeficiency virus 1; assay: Antiviral activity against multidrug-resistant HIV1 isolate TM containing L10I, K14R, R41K, M46L, I54V, L63P, A71V, V82A, L90M, and I93L mutant infected in human PHA-PBMC cells by p24 Gag protein production inhibition assay; settings: Human immunodeficiency virus 1, isolate TM
[21] = tested on: Human immunodeficiency virus 1; assay: Antiviral activity against multidrug-resistant HIV1 isolate G containing L10I, V11I, T12E, I15V, L19I,R41K, M46L, L63P, A71T, V82A, and L90M mutant infected in human PHA-PBMC cells by p24 Gag protein production inhibition assay; settings: Human immunodeficiency virus 1, isolate G
[22] = tested on: Human immunodeficiency virus 1; assay: Antiviral activity against multidrug-resistant HIV1 isolate C containing protease L10I, I15V, K20R, L24I, M36I, M46L, I54V, I62V, L63P, K70Q, V82A, and L89M mutant infected in human PHA-PBMC cells by p24 Gag protein production inhibition assay; settings: Human immunodeficiency virus 1, isolate C
[23] = tested on: Human immunodeficiency virus 1; assay: Antiviral activity against multidrug-resistant HIV1 isolate JSL containing L10I, L24I, I33F, E35D, M36I, N37S, M46L, I54V, R57K, I62V, L63P, A71V, G73S, and V82A mutant infected in human PHA-PBMC cells by p24 Gag protein production inhibition assay; settings: Human immunodeficiency virus 1, isolate JSL
[24] = tested on: Human immunodeficiency virus 1; assay: Antiviral activity against multidrug-resistant HIV1 isolate B containing protease L10I, K14R, L33I, M36I,M46I, F53I, K55R, I62V, L63P, A71V, G73S, V82A, L90M, and I93L mutant infected in human PHA-PBMC cells by p24 Gag protein production inhibition assay; settings: Human immunodeficiency virus 1, isolate B
[25] = Selectivity ratio of CC50 for human MT2 cells to EC50 for HIV1 LAI infected human MT2 cells; assay type: ADME, cell-based; settings: MT2 cells (CC50) and HIV1 LAI infected MT2 cells (EC50)
[26] = tested on: Human immunodeficiency virus 1; assay: Ratio of EC50 for multidrug-resistant HIV1 isolate G containing L10I, V11I, T12E, I15V, L19I,R41K, M46L, L63P, A71T, V82A, and L90M mutant to EC50 for wild type HIV1 ERS104 containing protease […] infected in human PHA-PBMC cells; assay type: functional
[27] = tested on: Human immunodeficiency virus 1; assay: Antiviral activity against HIV1 NL4-3 infected in human MT4 cells at 1 uM after 20 passages by MTT assay; assay type: functional, organism-based
[28] = tested on: Human immunodeficiency virus 1; assay: Antiviral activity against HIV1 NL4-3 infected in human MT4 cells at 1 uM after 33 passages by MTT assay; assay type: functional, organism-based
[29] = tested on: Human immunodeficiency virus 1; assay: Antiviral activity against HIV1 NL4-3 infected in human MT4 cells at 1 uM after 37 passages by MTT assay; assay type: functional, organism-based
[30] = tested on: Human immunodeficiency virus 1; assay: Antiviral activity against HIV1 NL4-3 infected in human MT4 cells after 50 passages by MTT assay; assay type: functional, organism-based
[31] = tested on: Human immunodeficiency virus 1; assay: Ratio of EC50 for multidrug-resistant HIV1 isolate JSL to EC50 for wild type HIV1 ERS104 containing protease […] infected in human PHA-PBMC cells
[32] = tested on: Human immunodeficiency virus 1; assay: Ratio of EC50 for multidrug-resistant HIV1 isolate C containing protease L10I, I15V, K20R, L24I, M36I, M46L, I54V, I62V, L63P, K70Q, V82A, and L89M mutant to EC50 for wild type HIV1 ERS104 containing protease L63P mutant infected in human PHA-PBMC cells

| Structure (SMILES) | EC50 [1] [nM] | EC50 [2] [nM] | EC50 [3] [nM] | CC50 at 168 h [4] [µM] | EC50 [5] [nM] | EC50 [7] [nM] | EC50 [8] [nM] | EC50 [9] [nM] | EC50 [10] [nM] | inhibition [12] | EC50 [13] [nM] | EC50 [14] [nM] | EC50 [15] [nM] | EC50 [16] [nM] | EC50 [17] [nM] | EC50 [18] [nM] | EC50 [19] [nM] | EC50 [20] [nM] | EC50 [21] [nM] | EC50 [22] [nM] | further results |
| --- | --- | --- | --- | --- | --- | --- | --- | --- | --- | --- | --- | --- | --- | --- | --- | --- | --- | --- | --- | --- | --- |
| COc1ccc2c(c1)OCC/C=C\CCCCN(C[C@@H](O)[C@H](Cc1ccccc1)NC(=O)O[C@H]1CO[C@H]3OCC[C@H]31)S2(=O)=O | 2 | 10 | 17 | 48.8 | 40 | 94 | 300 | > 1000 | 73 | Active | 5 | 5 | 35 | 20 | > 1000 | 23 | 33 | 27 | 57 | 44 | Activity [6]: Active; inhibition [11]: Active; EC50 [23]: 73 nM; EC50 [24]: 37 nM |
| COc1ccc2c(c1)OCCC/C=C\CCCCN(C[C@@H](O)[C@H](Cc1ccccc1)NC(=O)O[C@H]1CO[C@H]3OCC[C@H]31)S2(=O)=O | 4 | 18 | 25 | 33.1 | 41 | 190 | 330 | > 1000 | 250 | Active | 9 | 7 | 350 | 46 | > 1000 | 30 | 55 | 72 | 28 | 29 | selectivity ratio [25]: 8280; Ratio EC50 [26]: 4; Activity [27]: inactive; Activity [28]: inactive; Activity [29]: inactive; Activity [30]: inactive; Ratio EC50 [31]: 15; EC50 [23]: 210 nM; Ratio EC50 [32]: 4; EC50 [24]: 89 nM |
